Data: US12478624B2, “Heterocyclic derivatives, pharmaceutical compositions and their use in the treatment or amelioration of cancer” (Tolremo Therapeutics AG, priority 2019, dated 2025)
pEC50: −log10 of the molar value.

Test system: A375 cells
Experiment: Assay 1: A375 cells treated with S1152, S1008 and compound, immunofluorescence (sc-365823) signal
Type: cell-based
Conditions: 1 μM S1152 + 0.5 μM S1008, one day
Procedure: One thousand four hundred A375 cells were seeded in each well of a 384 well microplate. One day later they were treated with 1 μM S1152 (Selleckchem) in dimethyl sulfoxide, 0.5 μM S1008 (Selleckchem) and dose ranges of invention compounds for one day in Dulbecco's Modified Eagle's Medium supplemented with 10% fetal calf serum and 2 mM (2S)-2-amino-4-carbamoylbutanoic acid. Wells were incubated with 4% polyoxymethylene (Sigma Aldrich 158127) at ambient temperature. […] After one minute phosphate-buffered saline was replaced with 0.2% polyethylene glycol octylphenyl ether in phosphate-buffered saline. […] 1% aminoethanoic acid in phosphate-buffered saline was added for ten minutes at ambient temperature. […] After one hour at ambient temperature in the dark, signal in wells was measured with a Acumen Cellista. 3,8-Diamino-5-[3-(diethylmethylammonio)propyl]-6-phenylphenanthridinium diiodide-positive objects were defined in FL3 (565-600 nm) with a perimeter between 50-800 μm and a total intensity of 10000-1000000 FLU. Signal in FL2 (500-530 nm) was measured in defined objects. A normalized ratio of total In FL2 over total In FL3 staining was log transformed. A non-linear regression (variable slope, 4 parameters) was used to calculate EC50 values using GraphPad Prism (Version 7.0d).
In an alternative procedure, assay 1 has been affected by changing the counteratain. […] Cells were incubated with 0.5 μg/ml 2-(4-Amidinophenyl)-6-indolecarbamidine dihydrochloride, 4′,6-Diamidino-2-phenylindole dihydrochloride (Sigma D9542) in phosphate-buffered saline for at least 30 minutes at ambient temperature in the dark. A Celigo Imager (Nexcelom) was used to acquire images in the blue and green channel. The blue channel was used as a mask to define the area for the green signal. The average integrated intensity of the green signal was normalized and a non-linear regression (variable slope, 4 parameter) was used to calculate the EC50 values using GraphPad Prism (Version 8.4)

| SMILES | pEC50 |
| --- | --- |
| COc1cncc(-c2cc(Nc3cccc(Cl)c3)nc([C@@H]3CC[C@H](C)N(C(C)=O)C3)n2)c1 (racemic) [Compound 00016, (+/−)-cis-1-(5-(4-((3-chlorophenyl)amino)-6-(5-methoxypyridin-3-yl)pyrimidin-2-yl)-2-methylpiperidin-1-yl)ethan-1-one] | > 6.70 |
| CC(=O)N1C[C@H](c2nc(Nc3cccc(C)c3)cc(-c3cccnc3)n2)CC[C@@H]1C(F)(F)F (racemic) [Compound 00022, (+/−)-c/s-1-(5-(4-(pyridin-3-yl)-6-(m-tolylamino)pyrimidin-2-yl)-2-(trifluoromethyl)piperidin-1-yl)ethan-1-one] | 6.00 to 6.70 |
| CC(=O)N1C[C@H](c2nc(Nc3cccc(F)c3)cc(-c3cccnc3)n2)CC[C@@H]1C(F)(F)F (racemic) [Compound 00023, (+/−)-c/s-1-(5-(4-((3-fluorophenyl)amino)-6-(pyridin-3-yl)pyrimidin-2-yl)-2-(trifluoromethyl)piperidin-1-yl)ethan-1-one] | 6.00 to 6.70 |
| CC(=O)N1C[C@H](c2nc(Nc3cncc(C)c3)cc(-c3cncc(C)c3)n2)CC[C@@H]1C (racemic) [Compound 00098, (+/−)-c/s-1-(2-methyl-5-(4-(5-methylpyridin-3-yl)-6-((5-methylpyridin-3-yl)amino)pyrimidin-2-yl)piperidin-1-yl)ethan-1-one] | > 6.70 |
| CC(=O)N1C[C@H](c2nc(Nc3cncc(C)c3)cc(-c3cncc4[nH]ccc34)n2)CC[C@@H]1C (racemic) [Compound 00099, (+/−)-cis-1-(2-methyl-5-(4-((5-methylpyridin-3-yl)amino)-6-(1H-pyrrolo[2,3-c]pyridin-4-yl)pyrimidin-2-yl)piperidin-1-yl)ethan-1-one] | 6.00 to 6.70 |
| CC(=O)N1C[C@H](c2nc(Nc3cncc(C)c3)cc(-c3cncc(C4COC4)c3)n2)CC[C@@H]1C (racemic) [Compound 00100, (+/−)-c/s-1-(2-methyl-5-(4-((5-methylpyridin-3-yl)amino)-6-(5-(oxetan-3-yl)pyridin-3-yl)pyrimidin-2-yl)piperidin-1-yl)ethan-1-one] | 6.00 to 6.70 |
| CC(=O)N1C[C@H](c2nc(Nc3cccnc3)cc(-c3cccnc3)n2)CC[C@@H]1C (racemic) [Compound 00102, (+/−)-cis-1-(2-methyl-5-(4-(pyridin-3-yl)-6-(pyridin-3-ylamino)pyrimidin-2-yl)piperidin-1-yl)ethan-1-one] | 6.00 to 6.70 |
| CC(=O)N1C[C@H](c2nc(Nc3cccc(F)c3)cc(-c3cncc(O)c3)n2)CC[C@@H]1C (stereo in doubt) [Compound 00005] | > 6.70 |
| CC(=O)N1C[C@@H](c2nc(Nc3cncc(C)c3)cc(-c3cnccn3)n2)CC[C@H]1C [Compound 00002, 1-((2R,5S)-2-methyl-5-(4-((5-methylpyridin-3-yl)amino)-6-(pyrazin-2-yl)pyrimidin-2-yl)piperidin-1-yl)ethan-1-one] | < 5.00 |
| CC(=O)N1C[C@H](c2nc(Nc3ccncc3)cc(-c3cccnc3)n2)CC[C@@H]1C [Compound 00006] | 6.00 to 6.70 |
| CC(=O)N1C[C@@H](c2nc(Nc3ccncc3)cc(-c3cccnc3)n2)CC[C@H]1C [Compound 00007] | < 5.00 |
| [2H]C([2H])([2H])[C@H]1CC[C@@H](c2nc(Nc3cccc(F)c3)cc(-c3cccnc3)n2)CN1C(C)=O [Compound 00010] | > 6.70 |
| [2H]C([2H])([2H])[C@@H]1CC[C@H](c2nc(Nc3cncc(C)c3)cc(-c3cnccn3)n2)CN1C(C)=O [Compound 00011] | < 5.00 |
| [2H]C([2H])([2H])[C@H]1CC[C@@H](c2nc(Nc3cncc(C)c3)cc(-c3cnccn3)n2)CN1C(C)=O [Compound 000012] | > 6.70 |

Same assay, conditions: Homo sapiens, A-375, 24 h, 1 μM S1152 + 0.5 μM S1008, one day

| SMILES | pEC50 |
| --- | --- |
| COc1cncc(-c2cc(Nc3cccc(Cl)c3)nc([C@@H]3CC[C@@H](C)N(C(C)=O)C3)n2)c1 (racemic) [Compound 00017, (+/−)-trans-1-(5-(4-((3-chlorophenyl)amino)-6-(5-methoxypyridin-3-yl)pyrimidin-2-yl)-2-methylpiperidin-1-yl)ethan-1-one] | 5.00 to 6.00 |
| CC[C@H]1CC[C@@H](c2nc(Nc3cccc(C)c3)cc(-c3cccnc3)n2)CN1C(C)=O (racemic) [Compound 00018, (+/−)-cis-1-(2-ethyl-5-(4-(pyridin-3-yl)-6-(m-tolylamino)pyrimidin-2-yl)piperidin-1-yl)ethan-1-one] | 5.00 to 6.00 |
| CC[C@@H]1CC[C@@H](c2nc(Nc3cccc(C)c3)cc(-c3cccnc3)n2)CN1C(C)=O (racemic) [Compound 00019, (+/−)-frans-1-(2-ethyl-5-(4-(pyridin-3-yl)-6-(m-tolylamino)pyrimidin-2-yl)piperidin-1-yl)ethan-1-one] | < 5.00 |
| CC[C@H]1CC[C@@H](c2nc(Nc3cccc(F)c3)cc(-c3cccnc3)n2)CN1C(C)=O (racemic) [Compound 00020, (+/−)-c/s-1-(2-ethyl-5-(4-((3-fluorophenyl)amino)-6-(pyridin-3-yl)pyrimidin-2-yl)piperidin-1-yl)ethan-1-one] | 5.00 to 6.00 |
| CC[C@@H]1CC[C@@H](c2nc(Nc3cccc(F)c3)cc(-c3cccnc3)n2)CN1C(C)=O (racemic) [Compound 00021, (+/−)-trans-1-(2-ethyl-5-(4-((3-fluorophenyl)amino)-6-(pyridin-3-yl)pyrimidin-2-yl)piperidin-1-yl)ethan-1-one] | < 5.00 |
| CC(=O)N1C[C@H](c2nc(Nc3cccc(F)c3)cc(-c3cccnc3)n2)CC[C@H]1C(F)(F)F (racemic) [Compound 00024, (+/−)-trans-1-(5-(4-((3-fluorophenyl)amino)-6-(pyridin-3-yl)pyrimidin-2-yl)-2-(trifluoromethyl)piperidin-1-yl)ethan-1-one] | < 5.00 |
| CC(=O)N1C[C@H](c2nc(Nc3cccc(F)c3)cc(-c3cccnc3)n2)CC[C@@H]1C(F)F (racemic) [Compound 00025, (+/−)-c/s-1-(2-(difluoromethyl)-5-(4-((3-fluorophenyl)amino)-6-(pyridin-3-yl)pyrimidin-2-yl)piperidin-1-yl)ethan-1-one] | 5.00 to 6.00 |
| CC(=O)N1C[C@H](c2nc(Nc3cccc(F)c3)cc(-c3cccnc3)n2)CC[C@H]1C(F)F (racemic) [Compound 00026, (+/−)-frans-1-(2-(difluoromethyl)-5-(4-((3-fluorophenyl)amino)-6-(pyridin-3-yl)pyrimidin-2-yl)piperidin-1-yl)ethan-1-one] | < 5.00 |
| CC(=O)N1C[C@H](c2nc(Nc3cccc(C)c3)cc(-c3cccnc3)n2)CC[C@@H]1C(F)F (racemic) [Compound 00027, (+/−)-cis-1-(2-(difluoromethyl)-5-(4-(pyridin-3-yl)-6-(m-tolylamino)pyrimidin-2-yl)piperidin-1-yl)ethan-1-one] | 5.00 to 6.00 |
| CC(=O)N1C[C@H](c2nc(Nc3cncc(C)c3)cc(-c3cncnc3)n2)CC[C@@H]1C (racemic) [Compound 00097, (+/−)-c/s-1-(2-methyl-5-(6-((5-methylpyridin-3-yl)amino)-[4,5′-bipyrimidin]-2-yl)piperidin-1-yl)ethan-1-one] | 5.00 to 6.00 |
| CC(=O)N1C[C@H](c2nc(Nc3cccc(F)c3)cc(-c3cccnc3)n2)CC[C@H]1C [Compound 00015, (+/+)-trans-1-(5-(4-((3-fluorophenyl)amino)-6-(pyridin-3-yl)pyrimidin-2-yl)-2-methylpiperidin-1-yl)ethan-1-one] | < 5.00 |
